The results in this text go back to patent US20260055108A1, “TRIAZINE COMPOUNDS AND USES THEREOF” (HUTCHMED LIMITED, priority 2022, published 2026).

Experiment [1] deals with MV-4-11 cells (human acute myelogenous leukemia cell line carrying MLL-AF4 mutation). Put plainly: Cell proliferation assay, MV-4-11 (CellTiter-Glo). In kind it is cell-based. Particulars: Homo sapiens, MV4-11, 72 h, MV-4-11 cells, 3 days treatment, CellTiter-Glo; read-out: GI50. How it is done: Example 4 Cell Proliferation Assay
MV-4-11 (ATCC, CRL-9591), a human acute myelogenous leukemia cell line carrying MLL-AF4 mutation. Cells were cultured in an IMDM medium containing 10% heat-inactivated fetal bovine serum (HIFBS) and supplemented with 50 μM β-mercaptoethanol.
2. Reagents, Materials and Instruments:
• IMDM culture solution: GIBCO, 12440-053; • HIFBS: GIBCO, 10100-147; • β-mercaptoethanol: Sigma, M3148; • CellTiter-Glo® 2.0 assay kit (CTG): Promega, G9243; • DMSO: Sigma, D4540; • 96-well cell culture plate: Corning, 3903; • Envision: PerkinElmer.
MV-4-11 cells were resuspended in a medium, added to a 96-well plate at a density of 3000 cells/well with a volume of 100 μL/well, and cultured in a cell incubator at 5% CO2 and 37° C. for 4 hours. The test compound subjected to gradient dilution with the medium was added to a cell culture plate, and the final concentrations of the compound were 1.100, 0.367, 0.122, 0.041, 0.014, 0.005, 0.002 and 0.001 μM, respectively. The corresponding volume of DMSO diluent was added to a blank control well, and the final concentrations of DMSO in the experimental group and control group were both 0.1%. The cell plate was placed in a cell incubator at 5% CO2 and 37° C. and cultured for 3 days.
On day 0 and day 3 of the treatment, 50 μL/well CTG reagent was added to the cell plate and shaken at room temperature in the dark for 10 min, and then the chemiluminescence value of each well was measured with Envision.
[formula] • wherein: • luminescence valuetest sample: the chemiluminescence value of a cell well treated with the test compound for 3 days. • luminescence valueday 0: the chemiluminescence value of a cell well at day 0. • luminescence valuecell well: the chemiluminescence value of a cell well not treated with the compound for 3 days.
(§1) • calculated by using software XL-Fit™ (version 5.3) supplied by ID Business Solutions (Guildford, UK), which is an additional software to Microsoft Excel.
(Cellular ATP, detected with luciferase, serves as a proxy for viable cell number.)

The target in experiment [2] is Recombinant human Menin protein (2-610) / MLL polypeptide binding (Homo sapiens (Human), UniProt O00255). Put plainly: Menin and MLL protein binding at a molecular level (fluorescence polarization method). The conditions noted are these: inhibition of Menin / MLL polypeptide binding.
Source text: Example 3: Determination of the Activity of the Compounds of the Present Invention on Menin and MLL Protein Binding at a Molecular Level (Fluorescence Polarization Method)
1. Reagents, Materials and Instruments:
• Recombinant human Menin protein (2-610): ChemPartner, CP2021020801; • MLL polypeptide (6-FAM-Ahx-SG-40): GL Biochem, 865700; • Trizma® hydrochloride buffer solution (Tris): Sigma, T2194-1 L; • NaCl: Invitrogen, AM9760G; • TCEP: Sigma, 646547; • DMSO: Sigma, D4540; • 384-well plate: Corning, 4514; • Envision: PerkinElmer.
2. Preparation of Reaction Solutions
• 1) Buffer solution: 20 mL of Tris and 4 mL of NaCl were added respectively to 376 mL of ddH2O, with pH adjusted to 7.5, and TCEP was added before testing with a dilution ratio of 1:500. • 2) 5× test compounds: the test compound was subjected to gradient dilution with the buffer solution to 5-fold the reaction concentration, so that the final concentrations of the compound were 1.000, 0.333, 0.111, 0.037, 0.012, 0.004, 0.001 and 0.0005 μM, respectively. • 3) 2.5× Menin protein reaction solution: the Menin protein was diluted to 5 nM with the buffer solution. • 4) 2.5×MLL polypeptide reaction solution: the MLL polypeptide was diluted to 5 nM with the buffer solution.
1) Binding Reaction (20 μL System)
4 μL of 5× test compound was added to each reaction well of the 384-well plate, and the corresponding volume of 10% DMSO was added to the control wells. Except the control wells, 8 μL of Menin protein reaction solution was added to each well. The reaction solution was incubated at room temperature for 30 minutes, and then 8 μL of MLL polypeptide reaction solution was added to each well. The final concentrations of DMSO in the test compound wells and control wells were all 2%. The 384-well plate was sealed and incubated at room temperature for 30 minutes in the dark.
Three control groups were set up: • a blank control group only containing a buffer solution; • a negative control group only containing MLL polypeptide reaction solution; and • a positive control group containing Menin protein reaction solution and MLL polypeptide reaction solution.
The vertical polarization S value and the horizontal polarization P value (excitation wavelength was 480 nm, and emission wavelength was 535 nm) were measured with Envision.
Corrected S is the S value of the negative control group—the S value of the blank control group
Corrected P is the P value of the negative control group—the P value of the blank control group
as §1
A general note: Fluorescence polarisation rises when a labelled molecule tumbles more slowly, as on binding a larger partner.

The GI50 is the concentration that inhibits growth by half. What is called IC50 is the concentration at which inhibition is half-maximal.

Each structure is given as a SMILES string. Where only a bound is given, the exact number is not on record here.

Recombinant human Menin protein (2-610) / MLL polypeptide binding, sequence (O00255 2-610): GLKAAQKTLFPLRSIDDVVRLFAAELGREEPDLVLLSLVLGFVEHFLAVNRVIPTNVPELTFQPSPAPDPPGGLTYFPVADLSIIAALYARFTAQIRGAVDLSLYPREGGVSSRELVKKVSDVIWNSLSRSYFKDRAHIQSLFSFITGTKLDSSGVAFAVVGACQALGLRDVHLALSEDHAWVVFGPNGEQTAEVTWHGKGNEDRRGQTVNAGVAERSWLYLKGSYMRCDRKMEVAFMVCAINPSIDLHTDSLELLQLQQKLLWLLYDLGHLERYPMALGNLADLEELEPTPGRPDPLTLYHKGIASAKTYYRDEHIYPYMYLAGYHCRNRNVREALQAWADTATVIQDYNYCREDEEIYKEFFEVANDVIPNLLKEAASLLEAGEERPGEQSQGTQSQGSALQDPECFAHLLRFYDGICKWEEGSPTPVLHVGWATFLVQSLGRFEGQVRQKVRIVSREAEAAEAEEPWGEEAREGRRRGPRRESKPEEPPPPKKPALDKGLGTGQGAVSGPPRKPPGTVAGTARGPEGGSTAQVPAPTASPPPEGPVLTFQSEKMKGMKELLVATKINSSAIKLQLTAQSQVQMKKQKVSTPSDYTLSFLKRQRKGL

With `CCN(C(=O)c1cc(F)ccc1Oc1nncnc1N1CC2(CCN(CC3CCN(c4ccn5ncnc5c4)CC3)CC2)C1)C(C)C` [Compound 55, 2-((5-(7-((1-([1,2,4]triazolo[1,5-a]pyridin-7-yl)piperidin-4-yl)methyl)-2,7-diazaspiro[3.5]nonan-2-yl)-1,2,4-triazin-6-yl)oxy)-N-ethyl-5-fluoro-N-isopropylbenizamide], the GI50 in experiment [1] stood at 4 nM. Moreover, the IC50 in experiment [2] came to 3.5 nM.
Regarding `CCN(C(=O)c1cc(F)ccc1Oc1nncnc1N1CC2(CCN(CC3CCN(c4ccc5ncnn5c4)CC3)CC2)C1)C(C)C` [Compound 56], in experiment [1], the GI50 was found to be 45 nM. In experiment [2], the IC50 came to 28.4 nM.
With `CCN(C(=O)c1cc(F)ccc1Oc1nncnc1N1CC2(CCN(CC3CCN(c4ccccn4)CC3)CC2)C1)C(C)C` [Compound 57, N-ethyl-5-fluoro-N-isopropyl-2-((5-(7-((1-(pyridin-2-yl)piperidin-4-yl)methyl)-2,7-diazaspiro[3.5]nonan-2-yl)-1,2,4-triazin-6-yl)oxy)benzamide], the GI50 in experiment [1] worked out at 5 nM. Also, the IC50 in experiment [2] is 3 nM.
For `CCN(C(=O)c1cc(F)ccc1Oc1nncnc1N1CC2(CCN(Cc3c(C)cc(C)[nH]c3=O)CC2)C1)C(C)C` [Compound 58], the GI50 in experiment [1] was 230 nM. The concentration for half-maximal inhibition (IC50) in experiment [2] is 114 nM.
For the compound `CCN(C(=O)c1cc(F)ccc1Oc1nncnc1N1CC2(CCN(Cc3ccc(Cl)nc3)CC2)C1)C(C)C` [Compound 59], the GI50 in experiment [1] is over 3300 nM. Also, the IC50 in experiment [2] was over 1000 nM.
In the case of `CCN(C(=O)c1cc(F)ccc1Oc1nncnc1N1CC2(CCN(Cc3cnc(OC)c(Cl)c3C)CC2)C1)C(C)C` [Compound 60], the GI50 in experiment [1] was determined as 693 nM. Further, the IC50 in experiment [2] was found to be 574 nM.
`CCN(C(=O)c1cc(F)ccc1Oc1nncnc1N1CC2(CCN(Cc3ccc(NCC#N)cc3C)CC2)C1)C(C)C` [Compound 61]: in experiment [1], the GI50 worked out at 110 nM. Besides, in experiment [2], the IC50 stood at 89.4 nM.
On the same counts, the results for `CCN(C(=O)c1cc(F)ccc1Oc1nncnc1N1CC2(CCN(Cc3ccc4[nH]ccc4c3)CC2)C1)C(C)C` [Compound 62] are 193 nM and 324 nM.
With `CCN(C(=O)c1cc(F)ccc1Oc1nncnc1N1CC2(CCN(Cc3ccc4[nH]ncc4c3)CC2)C1)C(C)C` [Compound 64], in experiment [1], the GI50 stood at 226 nM. In addition, the IC50 in experiment [2] came out at 163 nM.
Turning to `CCN(C(=O)c1cc(F)ccc1Oc1nncnc1N1CC2(CCN(Cc3ccc4[nH]c(C#N)cc4c3C)CC2)C1)C(C)C` [Compound 66], the GI50 in experiment [1] stood at 3 nM. Further, in experiment [2], the IC50 was 1.2 nM.
On to `CCN(C(=O)c1cc(F)ccc1Oc1nncnc1N1CC2(CCN(Cc3ccc4oc(C)nc4c3)CC2)C1)C(C)C` [Compound 67], for which the GI50 in experiment [1] came out at 309 nM. In experiment [2], the IC50 was found to be 512 nM.
`CCN(C(=O)c1cc(F)ccc1Oc1nncnc1N1CC2(CCN(Cc3ccc4oc(C)cc4c3)CC2)C1)C(C)C` [Compound 68]: the GI50 in experiment [1] was 71 nM. Besides, the IC50 in experiment [2] amounted to 50.2 nM.
For the compound `CCN(C(=O)c1cc(F)ccc1Oc1nncnc1N1CC2(CCN(Cc3ccc4oc(C#N)cc4c3)CC2)C1)C(C)C` [Compound 69], the GI50 in experiment [1] is 16 nM. For the same compound, the IC50 in experiment [2] amounted to 8.5 nM.
Take `CCN(C(=O)c1cc(F)ccc1Oc1nncnc1N1CC2(CCN(Cc3ccc4nc(OC)ncc4c3)CC2)C1)C(C)C` [Compound 70]: the GI50 in experiment [1] was 2150 nM. In addition, the IC50 in experiment [2] is over 1000 nM.
Take `CCN(C(=O)c1cc(F)ccc1Oc1nncnc1N1CC2(CCN(Cc3ccc4nc(C)ncc4c3)CC2)C1)C(C)C` [Compound 71]: the GI50 in experiment [1] is 1280 nM. The IC50 in experiment [2] is over 1000 nM.
On to `CCN(C(=O)c1cc(F)ccc1Oc1nncnc1N1CC2(CCN(Cc3ccc4[nH]c(=O)ccc4c3)CC2)C1)C(C)C` [Compound 72], for which the GI50 in experiment [1] is 81 nM. The IC50 in experiment [2] turned out to be 28 nM.
In the case of `CCN(C(=O)c1cc(F)ccc1Oc1nncnc1N1CC2(CCN(Cc3cnc4c(c3)OC[C@H](c3ccc(OC)nc3)O4)CC2)C1)C(C)C` [Compound 73], the GI50 in experiment [1] was determined as 1270 nM. For the same compound, the IC50 in experiment [2] is over 1000 nM.
